Patent US20060069132A1, “Azolecarboxamide herbicides” (priority 2004, published 2006)
Read-outs that look alike come from different tables or passages of the source.

Experiments:
barnyardgrass = test: Test C flooded paddy test; type: in vivo, Echinochloa crus-galli
Procedure, shortened: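 Postemergence sprays were applied to plants 2 to 18 cm tall (1- to 4-leaf stage); in the flooded paddy test, barnyardgrass was grown to the 2-leaf stage. After 12 to 14 days in a greenhouse, injury was visually rated against untreated controls on a 0–100 scale (100 = complete control).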

redroot pigweed = test: Test A pre-/postemergence herbicide test; type: in vivo, Amaranthus retroflexus; conditions: Amaranthus retroflexus, 240 h; for pest or weed control at 500 g/ha: 500 g ai/ha; for pest or weed control at 2000 g/ha: 2000 g ai/ha
Procedure, shortened: (§1)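 Greenhouse injury scoring (0–100, complete control = 100) at approximately ten days follows simultaneous pre- and postemergence application. Soil received a directed spray after seeding; seedlings of 2–10 cm at the one- to two-leaf stage were sprayed to runoff.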

giant foxtail = test: Test A pre-/postemergence herbicide test; type: in vivo, Setaria faberi; conditions: Setaria faberi, 240 h; for pest or weed control at 500 g/ha: 500 g ai/ha; for pest or weed control at 2000 g/ha: 2000 g ai/ha
Procedure, shortened: as §1

large crabgrass = test: Test A pre-/postemergence herbicide test; type: in vivo, Digitaria sanguinalis; conditions: Digitaria sanguinalis, 240 h; for pest or weed control at 500 g/ha: 500 g ai/ha; for pest or weed control at 2000 g/ha: 2000 g ai/ha
Procedure, shortened: as §1

[1] = 62 g ai/ha, scale 0 to 100 (0 no effect, 100 complete control)
[2] = 125 g ai/ha, scale 0 to 100 (0 no effect, 100 complete control)
[3] = 250 g ai/ha, scale of 0 to 100, 0 is no effect, 100 is complete control
[4] = 500 g ai/ha, visual rating after 12 to 14 days, scale 0 to 100 (0 no effect, 100 complete control)
[5] = post-emergence, Postemergence, 0 to 100 scale, 0 no effect, 100 complete control, read-out: Plant response rating, Pigweed
[6] = post-emergence, Postemergence, 0 to 100 scale, 0 no effect, 100 complete control, read-out: Plant response rating, Foxtail, Giant
[7] = post-emergence, Postemergence, 0 to 100 scale, 0 no effect, 100 complete control, read-out: Plant response rating, Crabgrass, Large

Structure (SMILES) | Barnyardgrass plant response rating (barnyardgrass; [1]) | Barnyardgrass plant response rating (barnyardgrass; [2]) | Barnyardgrass plant response rating (barnyardgrass; [3]) | Plant response rating, Barnyardgrass (barnyardgrass; [4]) | pest or weed control at 500 g/ha (redroot pigweed; [5]) [%] | pest or weed control at 2000 g/ha (redroot pigweed; [5]) [%] | pest or weed control at 500 g/ha (redroot pigweed; pre-emergence, Preemergence, visual rating, 0 to 100 scale (0 no effect, 100 complete control), read-out: Pigweed plant response rating) [%] | pest or weed control at 2000 g/ha (redroot pigweed; pre-emergence, Preemergence, 0 to 100 scale, 0 no effect, 100 complete control, read-out: Pigweed plant response rating) [%] | pest or weed control at 500 g/ha (giant foxtail; [6]) [%] | pest or weed control at 2000 g/ha (giant foxtail; [6]) [%] | pest or weed control at 500 g/ha (giant foxtail; pre-emergence, Preemergence, visual rating, 0 to 100 scale (0 no effect, 100 complete control), read-out: Foxtail, Giant plant response rating) [%] | pest or weed control at 2000 g/ha (giant foxtail; pre-emergence, Preemergence, 0 to 100 scale, 0 no effect, 100 complete control, read-out: Foxtail, Giant plant response rating) [%] | pest or weed control at 62 g/ha (barnyardgrass; Echinochloa crus-galli, 62 g ai/ha, scale 0 to 100 (0 no effect, 100 complete control), read-out: Barnyardgrass plant response rating) [%] | pest or weed control at 125 g/ha (barnyardgrass; Echinochloa crus-galli, 125 g ai/ha, scale of 0 to 100, 0 is no effect, 100 is complete control, read-out: Barnyardgrass plant response rating) [%] | pest or weed control at 250 g/ha (barnyardgrass; Echinochloa crus-galli, 250 g ai/ha, visual rating after 12 to 14 days, scale 0 to 100 (0 no effect, 100 complete control), read-out: Plant response rating, Barnyardgrass) [%] | pest or weed control at 500 g/ha (barnyardgrass; Echinochloa crus-galli, 500 g ai/ha, visual rating after 12 to 14 days, scale 0 to 100 (0 no effect, 100 complete control), read-out: Plant response rating, Barnyardgrass) [%] | pest or weed control at 500 g/ha (large crabgrass; [7]) [%] | pest or weed control at 2000 g/ha (large crabgrass; [7]) [%] | pest or weed control at 500 g/ha (large crabgrass; pre-emergence, Preemergence, visual rating, 0 to 100 scale (0 no effect, 100 complete control), read-out: Crabgrass, Large plant response rating) [%] | pest or weed control at 2000 g/ha (large crabgrass; pre-emergence, Preemergence, 0 to 100 scale, 0 no effect, 100 complete control, read-out: Crabgrass, Large plant response rating) [%]
C#CCOc1cccc(NC(=O)c2cc(C(C)(C)C)nn2CC)c1 [Compound 411] | 15 | 25 | 40 | 45 |  |  |  |  |  |  |  |  |  |  |  |  |  |  |  | 
CCn1nc(C(C)(C)C)cc1C(=O)Nc1cccc(C(=O)NCC(F)(F)F)c1 [Compound 43, 3-(1,1-dimethylethyl)-1-ethyl-N-[3-[[(2,2,2-trifluoroethyl)amino]carbonyl]-phenyl]-1H-pyrazole-5-carboxamide] |  |  |  |  | 100 | 100 | 100 | 100 | 70 | 70 | 55 | 100 | 0 | 0 | 40 | 50 | 65 | 90 | 75 | 90
C#CCNC(=O)c1cccc(NC(=O)c2nn(C(C)(C)C)nc2CC)c1 [Compound 380] | 35 | 45 | 65 | 70 |  |  |  |  |  |  |  |  |  |  |  |  |  |  |  | 
C=CCOc1cccc(NC(=O)c2cc(C(C)(C)C)nn2CC)c1 [Compound 412] | 0 | 20 | 35 | 45 |  |  |  |  |  |  |  |  |  |  |  |  |  |  |  | 
